Data published in US10787443B2, “RAF-degrading conjugate compounds” (ZAMBONI CHEM SOLUTIONS INC., priority 2017, dated 2020).
Entries after “also recorded” stand apart in the source; their conditions may differ.

Key:
[1] = system: GST-Braf kinase domain and biotinylated E3 substrate adapter (VHL/EloB/EloC complex or CRBN318-425); assay: Dimerization assay (AlphaScreen/AlphaLisa), RAF/E3 dimerization; format: binding; details: Table 17; relative value; compounds 4 fold serial dilutions from 20 μM
[2] = target: T1, CRAF (CRAF fusion protein with a fluorescent protein) in Calu-6 cells (Homo sapiens, UniProt P04049); assay: Degradation assay, fluorescent CRAF fusion protein levels in Calu-6 cells (IncuCyte S3); format: cell-based; details: fluorescence/confluence
T1 construct: fluorescent protein (green); expressed in transfected cells; host or cells: Calu-6
Method: Calu-6 cells were stably transfected with a CRAF fusion protein with a fluorescent protein attached to the C-terminus of CRAF in order to monitor protein levels via fluorescence. Cells were seeded into a 96-well plate and allowed to adhere overnight. The next day cells are treated with compounds at the doses indicated in the table below and analyzed over time. Data was collected by monitoring Fluorescent CRAF protein levels an IncuCyte S3 Live Cell Analysis System (Essen BioScience). […] Calu6_CRAF fusion protein cells are imaged and analyzed using an Incucyte S3 live-cell analysis system (Essen Biosciences). Fluorescence signal is due to expression of the fluorescent protein covalently fused to the C-terminus of CRAF and degradation is assessed by measuring fluorescence/confluence (˜cell number) after treatment with compounds of the present disclosure. Phase contrast images are analyzed using Incucyte S3 software. Percent confluence is calculated using a phase contrast mask to quantify the area of the image occupied by the Calu6_CRAF fusion protein cells. Fluorescent images are analyzed using Incucyte S3 software. Green Corrected Units (GCU) is calculated using a fluorescence mask to quantify the area of the image occupied by green fluorescent signal and the intensity of the signal. […] As discussed above, degradation is measured as a function of fluorescence/confluence.

[3] = target: BRAF/VHL (Homo sapiens, UniProt P15056+P40337); details: FIG. 12; various concentrations
BRAF/VHL, sequence (P15056 457-717 limits assumed): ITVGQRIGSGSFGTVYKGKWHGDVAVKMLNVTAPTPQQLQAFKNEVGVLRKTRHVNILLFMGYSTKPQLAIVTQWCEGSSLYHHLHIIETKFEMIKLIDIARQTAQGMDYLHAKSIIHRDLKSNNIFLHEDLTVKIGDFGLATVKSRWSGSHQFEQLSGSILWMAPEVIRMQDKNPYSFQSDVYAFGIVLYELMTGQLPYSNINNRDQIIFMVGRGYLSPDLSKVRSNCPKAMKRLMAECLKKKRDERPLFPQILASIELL
BRAF/VHL, sequence (P40337 54-213 limits assumed): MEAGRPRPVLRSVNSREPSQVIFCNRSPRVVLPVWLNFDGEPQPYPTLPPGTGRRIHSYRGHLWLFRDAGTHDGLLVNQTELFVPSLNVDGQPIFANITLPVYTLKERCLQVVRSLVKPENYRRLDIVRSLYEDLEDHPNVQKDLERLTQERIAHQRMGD
BRAF/VHL, sequence (Q15370 whole entry partner): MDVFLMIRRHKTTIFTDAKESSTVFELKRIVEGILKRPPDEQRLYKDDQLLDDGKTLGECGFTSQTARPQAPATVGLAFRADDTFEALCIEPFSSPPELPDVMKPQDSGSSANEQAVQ
BRAF/VHL, sequence (Q15369 17-112 partner limits assumed): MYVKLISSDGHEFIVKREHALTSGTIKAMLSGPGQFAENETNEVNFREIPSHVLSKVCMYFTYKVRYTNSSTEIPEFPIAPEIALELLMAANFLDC

T1 sequence (P04049 whole entry, the tested form may be a part): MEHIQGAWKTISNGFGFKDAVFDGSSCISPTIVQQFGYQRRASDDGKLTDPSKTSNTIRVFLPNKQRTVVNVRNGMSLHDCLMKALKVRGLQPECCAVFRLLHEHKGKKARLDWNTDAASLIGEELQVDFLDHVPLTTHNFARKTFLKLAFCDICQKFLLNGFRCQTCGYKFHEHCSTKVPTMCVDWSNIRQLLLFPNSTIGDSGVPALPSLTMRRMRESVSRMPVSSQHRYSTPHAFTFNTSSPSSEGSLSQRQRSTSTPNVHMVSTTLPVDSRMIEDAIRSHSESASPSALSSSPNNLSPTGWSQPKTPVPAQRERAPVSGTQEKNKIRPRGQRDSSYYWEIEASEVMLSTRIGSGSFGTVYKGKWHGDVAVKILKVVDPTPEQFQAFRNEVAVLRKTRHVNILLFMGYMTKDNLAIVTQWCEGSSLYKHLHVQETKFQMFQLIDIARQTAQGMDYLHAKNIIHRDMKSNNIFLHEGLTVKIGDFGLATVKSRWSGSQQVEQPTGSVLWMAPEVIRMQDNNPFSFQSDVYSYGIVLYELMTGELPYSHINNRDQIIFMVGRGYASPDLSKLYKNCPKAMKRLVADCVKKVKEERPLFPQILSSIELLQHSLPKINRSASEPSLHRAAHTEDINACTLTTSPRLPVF

| Compound | RAF/E3 Dimerization [1] | CRAF degradation in Calu6 cells over time ([2]; 3 μM, FIG. 4, 8, 9) | also measured |
| --- | --- | --- | --- |
| Cc1ncc(NC(=O)c2cccc(C(F)(F)F)c2)cc1-c1cnc(O[C@H]2CCO[C@@H](COCc3cn(CCCCCC(=O)N[C@@H](C(=O)N4C[C@H](O)C[C@H]4C(=O)N[C@@H](C)c4ccc(-c5scnc5C)cc4)C(C)(C)C)nn3)C2)c(N2CCOCC2)c1 (relative stereo) [Compound 2.004, (2S,4R)-1-((R)-3,3-dimethyl-2-(6-(4-((((2R*,4S*)-4-((2′-methyl-5-morpholino-5′-(3-(trifluoromethyl)benzamido)-[3,3′-bipyridin]-6-yl)oxy)tetrahydro-2H-pyran-2-yl)methoxy)methyl)-1H-1,2,3-triazol-1-yl)hexanamido)butanoyl)-4-hydroxy-N—((S)-1-(4-(4-methylthiazol-5-yl)phenyl)ethyl)pyrrolidine-2-carboxamide] | +++ (50% > RAF/E3 Dimerization ≥ 25) | – | CRAF degradation in Calu6 cells over time ([2]; 1.5 μM, FIG. 3): CRAF degradation |
| Cc1ccc(NC(=O)c2cccc(C(F)(F)F)c2)cc1-c1cnc(OCCc2cn(CCCCCC(=O)Nc3cccc4c3C(=O)N(C3CCC(=O)NC3=O)C4=O)nn2)c(N2CCOCC2)c1 (stereo not drawn) [Compound 1.009, N-(3-(6-(2-(1-(6-((2-(2,6-dioxopiperidin-3-yl)-1,3-dioxoisoindolin-4-yl)amino)-6-oxohexyl)-1H-1,2,3-triazol-4-yl)ethoxy)-5-morpholinopyridin-3-yl)-4-methylphenyl)-3-(trifluoromethyl)benzamide] | + (5% > RAF/E3 Dimerization) | CRAF degradation | – |
| Cc1ncc(NC(=O)c2cccc(C(F)(F)F)c2)cc1-c1cnc(OCCOCCOCCOCCOCCOCC(=O)N[C@@H](C(=O)N2C[C@H](O)C[C@H]2C(=O)N[C@@H](C)c2ccc(-c3scnc3C)cc2)C(C)(C)C)c(N2CCOCC2)c1 [Compound 2.001, (2S,4R)-1-((R)-2-(tert-butyl)-20-((2′-methyl-5-morpholino-5′-(3-(trifluoromethyl)-benzamido)-[3,3′-bipyridin]-6-yl)oxy)-4-oxo-6,9,12,15,18-pentaoxa-3-azaicosan-1-oyl)-4-hydroxy-N—((S)-1-(4-(4-methylthiazol-5-yl)phenyl)ethyl)pyrrolidine-2-carboxamide] | +++++ (RAF/E3 Dimerization ≥75%) | CRAF degradation | – |
| Cc1ncc(NC(=O)c2cccc(C(F)(F)F)c2)cc1-c1cnc(OCCOCCOCCOCc2cn(CCCCCC(=O)N[C@@H](C(=O)N3C[C@@H](O)C[C@@H]3C(=O)N[C@@H](C)c3ccc(-c4scnc4C)cc3)C(C)(C)C)nn2)c(N2CCOCC2)c1 [Compound 2.010, (2R,4S)-1-((R)-3,3-dimethyl-2-(6-(4-((2-(2-(2-((2′-methyl-5-morpholino-5′-(3-(trifluoromethyl)benzamido)-[3,3′-bipyridin]-6-yl)oxy)ethoxy)ethoxy)ethoxy)methyl)-1H-1,2,3-triazol-1-yl)hexanamido)butanoyl)-4-hydroxy-N—((S)-1-(4-(4-methylthiazol-5-yl)phenyl)ethyl)pyrrolidine-2-carboxamide] | – | – | CRAF degradation in Calu6 cells over time ([2]; 1.67 μM, FIG. 13, FIG. 14): no CRAF degradation; also recorded: does not significantly reduce the relative amount of CRAF |
| Cc1ncc(NC(=O)c2cccc(C(F)(F)F)c2)cc1-c1cnc(OC2CCOCC2)c(N2CCOCC2)c1 [RAF709, reference compound] | – | – | BRAF/VHL dimerization [3]: does not cause dimerization |

The next lines start with results.

| RAF/E3 Dimerization [1] | CRAF degradation in Calu6 cells over time ([2]; 3 μM, FIG. 4, 8, 9) | Compound | also measured |
| --- | --- | --- | --- |
| +++ (50% > RAF/E3 Dimerization ≥ 25) | CRAF degradation | Cc1ccc(NC(=O)c2cccc(C(F)(F)F)c2)cc1-c1cnc(OCCOCc2cn(CCCCCC(=O)Nc3cccc4c3C(=O)N(C3CCC(=O)NC3=O)C4=O)nn2)c(N2CCOCC2)c1 (stereo not drawn) [Compound 2.012, N-(3-(6-(2-((1-(6-((2-(2,6-dioxopiperidin-3-yl)-1,3-dioxoisoindolin-4-yl)amino)-6-oxohexyl)-1H-1,2,3-triazol-4-yl)methoxy)ethoxy)-5-morpholinopyridin-3-yl)-4-methylphenyl)-3-(trifluoromethyl)benzamide] | – |
| +++++ (RAF/E3 Dimerization ≥75%) | – | Cc1ncc(NC(=O)c2cccc(C(F)(F)F)c2)cc1-c1cnc(OCCOCCOCCOCCOCC(=O)NCCCCCc2cccc3c2CN(C2CCC(=O)NC2=O)C3=O)c(N2CCOCC2)c1 (stereo not drawn) [Compound 2.014, N-(5-(2-(2,6-dioxopiperidin-3-yl)-1-oxoisoindolin-4-yl)pentyl)-14-((2′-methyl-5-morpholino-5′-(3-(trifluoromethyl)benzamido)-[3,3′-bipyridin]-6-yl)oxy)-3,6,9,12-tetraoxatetradecan-1-amide] | CRAF degradation in Calu6 cells over time ([2]; 12.5 μM, FIG. 7): CRAF degradation |
| +++ (50% > RAF/E3 Dimerization ≥ 25) | – | Cc1ncc(NC(=O)c2cccc(C(F)(F)F)c2)cc1-c1cnc(OCCOCCOCC(=O)NCCCCCCc2cccc3c2CN(C2CCC(=O)NC2=O)C3=O)c(N2CCOCC2)c1 (stereo not drawn) [Compound 2.015, N-(6′-(2-(2-(2-((6-(2-(2,6-dioxopiperidin-3-yl)-1-oxoisoindolin-4-yl)hexyl)amino)-2-oxoethoxy)ethoxy)ethoxy)-2-methyl-5′-morpholino-[3,3′-bipyridin]-5-yl)-3-(trifluoromethyl)benzamide] | CRAF degradation in Calu6 cells over time ([2]; 2 μM, FIG. 10): CRAF degradation |
| +++++ (RAF/E3 Dimerization ≥75%) | – | Cc1ncc(NC(=O)c2cccc(C(F)(F)F)c2)cc1-c1cnc(OCCOCCOCCOCCOCC(=O)NCCOCCCc2cccc3c2CN(C2CCC(=O)NC2=O)C3=O)c(N2CCOCC2)c1 (stereo not drawn) [Compound 2.016, N-(2-(3-(2-(2,6-dioxopiperidin-3-yl)-1-oxoisoindolin-4-yl)propoxy)ethyl)-14-((2′-methyl-5-morpholino-5′-(3-(trifluoromethyl)benzamido)-[3,3′-bipyridin]-6-yl)oxy)-3,6,9,12-tetraoxatetradecan-1-amide] | CRAF degradation in Calu6 cells over time ([2]; 5 μM, FIG. 11): CRAF degradation |
| ++ (25% > RAF/E3 Dimerization ≥ 5%) | – | Cc1ncc(NC(=O)c2cccc(C(F)(F)F)c2)cc1-c1cnc(OCCOCCOCCOCC(=O)NCCOCCCc2cccc3c2C(=O)N(C2CCC(=O)NC2=O)C3=O)c(N2CCOCC2)c1 (stereo not drawn) [Compound 2.021, N-(6′-((18-(2-(2,6-dioxopiperidin-3-yl)-1,3-dioxoisoindolin-4-yl)-11-oxo-3,6,9,15-tetraoxa-12-azaoctadecyl)oxy)-2-methyl-5′-morpholino-[3,3′-bipyridin]-5-yl)-3-(trifluoromethyl)-benzamide] | CRAF degradation in Calu6 cells over time ([2]; 15 μM, FIG. 6): CRAF degradation |
